In patent publication US9868738B2, “Diazine-fused amidines as BACE inhibitors, compositions, and their use” (Merck Sharp & Dohme Corp., priority 2014, dated 2018) one finds Ki data, which are given here for twelve molecules.

Assay [1] addresses purified human autoBACE-2 (Homo sapiens (Human), UniProt Q9Y5Z0). As to the kind of experiment: BACE-2 Assay (BACE-HTRF assay). It is filed as biochemical. To be noted: Ki calculated from IC50 using the Cheng-Prusoff equation; QSY7-EISEVNLDAEFC-Eu-amide substrate 200 nM, pH 5.0. As for the experimental part: Inhibitor IC50s at purified human autoBACE-2 are determined in a time-resolved endpoint proteolysis assay that measures hydrolysis of the QSY7-EISEVNLDAEFC-Eu-amide FRET peptide substrate (BACE-HTRF assay). BACE-mediated hydrolysis of this peptide results in an increase in relative fluorescence (RFU) at 620 nm after excitation with 320 nm light. Inhibitor compounds, prepared at 3× the desired final concentration in 1×BACE assay buffer (20 mM sodium acetate pH 5.0, 10% glycerol, 0.1% Brij-35) supplemented with 7.5% DMSO are pre-incubated with an equal volume of autoBACE-2 enzyme diluted in 1×BACE assay buffer (final enzyme concentration 1 nM) in black 384-well NUNC plates for 30 minutes at 30° C. […] DMSO is present at […] final concentration in the assay. Following laser excitation of sample wells at 320 nm, the fluorescence signal at 620 nm is collected for 400 ms following a 50 μs delay on a RUBYstar HTRF plate reader (BMG Labtechnologies). Raw RFU data is normalized to maximum (1.0 nM BACE/DMSO) and minimum (no enzyme/DMSO) RFU values. IC50s are determined by nonlinear regression analysis (sigmoidal dose response, variable slope) of percent inhibition data with minimum and maximum values set to 0 and 100 percent respectively. Similar IC50s are obtained when using raw RFU data. The Ki values are calculated from the IC50 using the Cheng-Prusoff equation.

Assay [2] addresses soluble human BACE1 catalytic domain (Homo sapiens (Human), UniProt P56817). As to the kind of experiment: BACE-1 Ki Assay (BACE-1 HTRF FRET Assay). To be noted: Ki calculated from IC50 using the Cheng-Prusoff equation; QSY7-APPswe-Eu substrate 200 nM, pH 5.0. It is filed as biochemical. As for the experimental part: In another embodiment, the compounds of the invention comprise the example compounds shown in the table below, or a tautomer thereof, or a pharmaceutically acceptable salt of said compound or said tautomer. Examples 2 to 42 were prepared using the method similar to Ex. 1. Example 44 to 51 were synthesized using the method similar to Ex. 43. BACE-1 values reported in this table were measured using BACE-1 Ki Assay (BACE-1 HTRF FRET Assay).
• Reagents: Na^+-Acetate pH 5.0; 1% Brij-35; Glycerol; Dimethyl Sulfoxide (DMSO); Recombinant human soluble BACE1 catalytic domain (>95% pure); APP Swedish mutant peptide substrate (QSY7-APP^swe-Eu): QSY7-EISEVNLDAEFC-Europium-amide.
A homogeneous time-resolved FRET assay can be used to determine IC50 values for inhibitors of the soluble human BACE1 catalytic domain. This assay monitors the increase of 620 nm fluorescence that resulted from BACE1 cleavage of an APPswedish APP^swe mutant peptide FRET substrate (QSY7-EISEVNLDAEFC-Europium-amide). This substrate contains an N-terminal QSY7 moiety that serves as a quencher of the C-terminal Europium fluorophore (620 nm Em). In the absence of enzyme activity, 620 nm fluorescence is low in the assay and increased linearly over 3 hours in the presence of uninhibited BACE1 enzyme. Inhibition of BACE1 cleavage of the QSY7-APP^swe-Eu substrate by inhibitors is manifested as a suppression of 620 nm fluorescence.
Varying concentrations of inhibitors at 3× the final desired concentration in a volume of 10 ul are preincubated with purified human BACE1 catalytic domain (3 nM in 10 μl) for 30 minutes at 30° C. in reaction buffer containing 20 mM Na-Acetate pH 5.0, 10% glycerol, 0.1% Brij-35 and 7.5% DSMO. Reactions are initiated by addition of 10 μl of 600 nM QSY7-APP^swe-Eu substrate (200 nM final) to give a final reaction volume of 30 μl in a 384 well Nunc HTRF plate. The reactions are incubated at 30° C. for 1.5 hours. The 620 nm fluorescence is then read on a Rubystar HTRF plate reader (BMG Labtechnologies) using a 50 millisecond delay followed by a 400 millisecond acquisition time window. Inhibitor IC50 values are derived from non-linear regression analysis of concentration response curves. Ki values are then calculated from IC50 values using the Cheng-Prusoff equation using a previously determined […] of 8 μM for the QSY7-APP^swe-Eu substrate at BACE1.

Chain of soluble human BACE1 catalytic domain (P56817 75-416): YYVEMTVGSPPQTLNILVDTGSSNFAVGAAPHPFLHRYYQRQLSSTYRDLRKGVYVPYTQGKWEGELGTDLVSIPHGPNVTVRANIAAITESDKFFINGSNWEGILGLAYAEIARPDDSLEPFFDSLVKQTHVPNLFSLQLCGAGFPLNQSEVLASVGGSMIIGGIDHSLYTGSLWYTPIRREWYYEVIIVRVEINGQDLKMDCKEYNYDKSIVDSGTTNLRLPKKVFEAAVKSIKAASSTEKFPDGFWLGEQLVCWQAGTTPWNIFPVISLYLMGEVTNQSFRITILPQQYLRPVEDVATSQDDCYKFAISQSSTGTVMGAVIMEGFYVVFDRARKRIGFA
Chain of purified human autoBACE-2 (Q9Y5Z0 63-473 limits assumed): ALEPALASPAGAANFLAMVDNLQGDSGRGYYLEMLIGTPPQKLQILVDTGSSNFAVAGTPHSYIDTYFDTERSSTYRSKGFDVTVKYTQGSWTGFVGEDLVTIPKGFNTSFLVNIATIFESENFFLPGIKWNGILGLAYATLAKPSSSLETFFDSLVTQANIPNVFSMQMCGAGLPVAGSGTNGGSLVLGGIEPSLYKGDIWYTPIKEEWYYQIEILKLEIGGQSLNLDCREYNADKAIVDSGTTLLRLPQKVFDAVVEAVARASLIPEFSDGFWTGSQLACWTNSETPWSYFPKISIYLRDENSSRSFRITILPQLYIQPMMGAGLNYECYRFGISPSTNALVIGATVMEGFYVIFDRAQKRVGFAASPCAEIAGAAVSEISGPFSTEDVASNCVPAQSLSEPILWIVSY

For orientation: Ki means a dissociation constant, usually derived from enzyme kinetics or from competition with a known ligand. Take `C[C@@]1(c2cc(-c3cccc(C#N)c3)cs2)Cc2nc(C(F)(F)F)ncc2C(=N)N1` [Example 40, 3-{5-[(7S)-5-imino-7-methyl-2-(trifluoromethyl)-5,6,7,8-tetrahydropyrido[4,3-d]pyrimidin-7-yl]thiophen-3-yl}benzonitrile]: the Ki in assay [1] was 23.1 nM; in assay [2] it was 58.2 nM.

For the molecule `C[C@@]1(c2cc(-c3cncc(C#N)c3)cs2)Cc2nc(C(F)(F)F)ncc2C(=N)N1` [Example 41, 5-{5-[(7S)-5-imino-7-methyl-2-(trifluoromethyl)-5,6,7,8-tetrahydropyrido[4,3-d]pyrimidin-7-yl]thiophen-3-yl}pyridine-3-carbonitrile], the Ki in assay [1] is 97.7 nM; in assay [2], 208 nM.

Regarding `C[C@@]1(c2cc(-c3cccc(-c4nnco4)c3)cs2)Cc2nc(C(F)(F)F)ncc2C(=N)N1` [Example 42, (7S)-7-methyl-7-{4-[3-(1,3,4-oxadiazol-2-yl)phenyl]thiophen-2-yl}-2-(trifluoromethyl)-7,8-dihydropyrido[4,3-d]pyrimidin-5(6H)-imine], the results for the Ki in assay [1] and in assay [2] were 121 nM and 49.6 nM, respectively.

With `C[C@@]1(c2cc(NC(=O)c3ccc(F)cn3)ccc2F)Cc2ncncc2C(=N)N1` [Example 43, 5-fluoro-N-{4-fluoro-3-[(7S)-5-imino-7-methyl-5,6,7,8-tetrahydropyrido[4,3-d]pyrimidin-7-yl]phenyl}pyridine-2-carboxamide], the Ki is 3 nM in assay [1] and 9.4 nM in assay [2].

Take `Cc1ncc2c(n1)C[C@@](C)(c1cc(NC(=O)c3ccc(F)cn3)ccc1F)NC2=N` [Example 44, 5-fluoro-N-{4-fluoro-3-[(7S)-5-imino-2,7-dimethyl-5,6,7,8-tetrahydropyrido[4,3-d]pyrimidin-7-yl]phenyl}pyridine-2-carboxamide]: the results for the Ki in assay [1] and in assay [2] were 4.5 nM and 16.8 nM, respectively.

As for `Cc1ncc2c(n1)C[C@@](C)(c1cc(NC(=O)c3ccc(Cl)cn3)ccc1F)NC2=N` [Example 45, 5-chloro-N-{4-fluoro-3-[(7S)-5-imino-2,7-dimethyl-5,6,7,8-tetrahydropyrido[4,3-d]pyrimidin-7-yl]phenyl}pyridine-2-carboxamide], the figures for the inhibition constant Ki in assay [1] and in assay [2] were 4.2 nM and 10.4 nM, respectively.

In the case of `Cc1ncc2c(n1)C[C@@](C)(c1cc(NC(=O)c3ccc(C(F)(F)F)cn3)ccc1F)NC2=N` [Example 46, N-{4-fluoro-3-[(7S)-5-imino-2,7-dimethyl-5,6,7,8-tetrahydropyrido[4,3-d]pyrimidin-7-yl]phenyl}-5-(trifluoromethyl)pyridine-2-carboxamide], the inhibition constant (Ki) in assay [1] is 48.3 nM; in assay [2], 18.1 nM.

`COc1ccc(C(=O)Nc2ccc(F)c([C@]3(C)Cc4nc(C)ncc4C(=N)N3)c2)nc1` [Example 47, N-{4-fluoro-3-[(7S)-5-imino-2,7-dimethyl-5,6,7,8-tetrahydropyrido[4,3-d]pyrimidin-7-yl]phenyl}-5-methoxypyridine-2-carboxamide]: the inhibitory constant (Ki) is 15.3 nM in assay [1] and 15.4 nM in assay [2].

`C[C@@]1(c2cc(NC(=O)c3ccc(F)cn3)ccc2F)Cc2nc(C3CC3)ncc2C(=N)N1` [Example 48, N-{3-[(7S)-2-cyclopropyl-5-imino-7-methyl-5,6,7,8-tetrahydropyrido[4,3-d]pyrimidin-7-yl]-4-fluorophenyl}-5-fluoropyridine-2-carboxamide]: the Ki in assay [1] is 3 nM; in assay [2], 13.1 nM.

`C[C@@]1(c2cc(NC(=O)c3ccc(C(F)(F)F)cn3)ccc2F)Cc2nc(C3CC3)ncc2C(=N)N1` [Example 49, N-{3-[(7S)-2-cyclopropyl-5-imino-7-methyl-5,6,7,8-tetrahydropyrido[4,3-d]pyrimidin-7-yl]-4-fluorophenyl}-5-(trifluoromethyl)pyridine-2-carboxamide]: the inhibition constant Ki in assay [1] is 34.2 nM; in assay [2], 20.5 nM.

Take `Cc1ncc2c(n1)C[C@](c1cc(NC(=O)c3ccc(C#N)cn3)ccc1F)(C(F)F)NC2=N` [Example 50, 5-cyano-N-{3-[(7S)-7-(difluoromethyl)-5-imino-2-methyl-5,6,7,8-tetrahydropyrido[4,3-d]pyrimidin-7-yl]-4-fluorophenyl}pyridine-2-carboxamide]: the Ki in assay [1] was 10.9 nM; in assay [2], 7.1 nM.

Regarding `C[C@@]1(c2cc(NC(=O)c3ccc(C#N)cn3)ccc2F)Cc2nccnc2C(=N)N1` [Example 51, 5-cyano-N-{4-fluoro-3-[(7S)-5-imino-7-methyl-5,6,7,8-tetrahydropyrido[3,4-b]pyrazin-7-yl]phenyl}pyridine-2-carboxamide], the inhibition constant Ki in assay [1] is 207 nM; in assay [2], 62.7 nM.
